# How the values were obtained:
# MC1-R = MC1-R (Mus musculus, UniProt Q01727); test: Competitive inhibition binding assay, 125I-NDP-alpha-MSH, B-16 mouse melanoma cell membranes; conditions: B-16 cells; read-out: Ki MC-1 B-16
# hMC3-R = biological target: T1, hMC3-R (Homo sapiens, UniProt P41968); test: Competitive inhibition binding assay, 125I-NDP-alpha-MSH, hMC3-R membranes
# T1 construct: expressed in transfected cells
# hMC5-R = biological target: T2, hMC5-R (Homo sapiens, UniProt P33032); test: Competitive inhibition binding assay, 125I-NDP-alpha-MSH, hMC5-R membranes
# T2 construct: expressed in transfected cells
# T2 sequence (P33032 whole entry): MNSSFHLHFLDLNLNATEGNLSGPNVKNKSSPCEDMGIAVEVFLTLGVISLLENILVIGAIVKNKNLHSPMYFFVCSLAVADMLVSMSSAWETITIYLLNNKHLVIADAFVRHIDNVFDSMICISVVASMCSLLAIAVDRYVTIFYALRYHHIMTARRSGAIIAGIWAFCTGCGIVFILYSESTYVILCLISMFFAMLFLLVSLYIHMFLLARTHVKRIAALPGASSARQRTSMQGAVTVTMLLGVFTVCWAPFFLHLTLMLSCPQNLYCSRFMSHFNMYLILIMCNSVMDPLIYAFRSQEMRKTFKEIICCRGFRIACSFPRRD
# [1] = Penile erection induction in male rats; format: in vivo, rat; conditions: male Sprague-Dawley rats; iv, varying quantities; 30 minutes observation; FIG. 2
# Description: The ability of compounds to induce penile erection (PE) in male rats was evaluated with selected peptides. Male Sprague-Dawley rats weighing 200-250 g were kept on a 12 hour on/off light cycle with food and water ad libitum. All behavioral studies were performed between 10 a.m. and 5 p.m. Groups of 4-8 rats were treated with peptides at a variety of doses via intravenous (IV), subcutaneous (SC), intracerebroventricular (ICV), intraperitoneal (IP) injection or administered intranasally (IN) using a micropipetor to deliver 25 μL of solution into one nostril. Immediately after treatment, rats were placed into individual polystyrene cages (27 cm long, 16 cm wide, and 25 cm high) for behavioral observation.
# [2] = Food intake and body weight change in male Sprague-Dawley rats; format: in vivo, rat; conditions: for average daily body weight gain / average daily body weight lost: saline animals gained 4 g
# Description: Food intake and body weight change was evaluated for selected peptides. Male Sprague-Dawley rats weighing ˜300 g at the beginning of the experiment were kept on a 12 hour on/of light cycle. Lights out was adjusted to 12:00 p.m. to allow for dosing just prior to the start of their dark period. Rats (12/group) were fed powdered chow and water ad libitum. For 1 week before treatment, 24-hour food intake and body weight change was recorded to assess a baseline for the group during vehicle treatment. The rats were dosed ICV, IV, SC or IP on day 0 and food intake and body weight measured daily for 1 week. Animals were dosed once per week for up to 6 weeks and their food intake and daily weight changed compared to their baseline. FIGS. 3, 4 and 5 illustrate results of different peptides at different doses and by varying routes of administration.
# [3] = Conditioned taste aversion in rats; format: in vivo, rat; conditions: IP 1500 μg/kg, saccharin water intake day 1 vs day 3, FIG. 6
# Description: Conditioned taste aversion was evaluated in rats using selected peptides. Male Sprague-Dawley rats weighing ˜300 g were kept on a 12 hour on/of light cycle. Lights out was adjusted to 12:00 p.m. with food ad libitum. Animals were trained to be accustomed to 30 minutes of access to water per day. On day 1 of the experiment, rats were given 30 minutes of access to water containing 0.15% saccharin immediately prior to being dosed ICV, IV or IP with compound. On day 2 they were given plain water for the appointed time. On day 3 the rats were given saccharin-containing water again. The amount of fluid these animals consumed on day 1 and day 3 was compared. Reduced intake on day 3 indicates a conditioned taste aversion due to illness induced by drug treatment on day 1.
# MC4-R [4] = biological target: T3, MC4-R (Homo sapiens, UniProt P32245); test: Competitive inhibition binding assay, 125I-NDP-alpha-MSH, hMC4-R membranes; set-up: expressed in transfected cells
# T3 sequence (P32245 whole entry): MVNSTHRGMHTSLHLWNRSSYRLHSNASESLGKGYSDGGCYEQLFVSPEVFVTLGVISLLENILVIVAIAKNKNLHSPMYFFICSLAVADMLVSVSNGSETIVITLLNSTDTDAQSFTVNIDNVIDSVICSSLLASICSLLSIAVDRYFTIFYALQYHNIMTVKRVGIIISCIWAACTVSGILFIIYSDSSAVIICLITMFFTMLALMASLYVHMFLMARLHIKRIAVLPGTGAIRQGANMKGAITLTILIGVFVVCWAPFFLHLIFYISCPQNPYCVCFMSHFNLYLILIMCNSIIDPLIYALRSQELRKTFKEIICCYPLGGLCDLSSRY
# MC4-R [5] = biological target: T3, MC4-R; test: Functional evaluation: intracellular cAMP accumulation in HEK-293 cells expressing MC4-R (agonist/antagonist status); format: cell-based; set-up: expressed in transfected cells; host or cells: HEK-293; conditions: with or without alpha-MSH, 1 hour at 37° C
# Description: The Ki (nM) of certain peptides were determined, as was the agonist/antagonist status with respect to MC4-R. Functional evaluation of peptides at MC4-R was performed by measuring the accumulation of intracellular cAMP in HEK-293 cells expressing MC4-R. Antagonistic activity was determined by measuring the inhibition of α-MSH-induced cAMP levels following exposure to the compounds. Cells, suspended in Earle's Balanced Salt Solution containing 10 mM HEPES, pH 7.5, 5 mM MgCl2, 1 mM glutamine, 0.1% albumin and 0.6 mM 3-isobutyl-1-methyl-xanthine, a phosphodiesterase inhibitor, were plated in 96 well plates at a density of 0.5×10^5 cells per well. Cells were incubated with the test peptides in the presence or absence of α-MSH for 1 hour at 37° C. cAMP levels were measured by EIA (Amersham) in the cell lysates. Data analysis and EC50 values were determined using nonlinear regression analysis with Prism Graph-Pad software.
# T1 sequence (P41968 whole entry): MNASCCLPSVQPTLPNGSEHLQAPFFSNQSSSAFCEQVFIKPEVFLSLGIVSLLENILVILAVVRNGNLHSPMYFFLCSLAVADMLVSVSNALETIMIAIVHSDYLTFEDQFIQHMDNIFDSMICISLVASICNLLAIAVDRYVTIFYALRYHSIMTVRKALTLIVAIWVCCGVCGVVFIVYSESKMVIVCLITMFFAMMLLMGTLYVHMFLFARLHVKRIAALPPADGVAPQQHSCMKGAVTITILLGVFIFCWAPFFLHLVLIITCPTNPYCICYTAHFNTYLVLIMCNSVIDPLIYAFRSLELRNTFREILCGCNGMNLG
# Sequence of MC1-R (Q01727 whole entry): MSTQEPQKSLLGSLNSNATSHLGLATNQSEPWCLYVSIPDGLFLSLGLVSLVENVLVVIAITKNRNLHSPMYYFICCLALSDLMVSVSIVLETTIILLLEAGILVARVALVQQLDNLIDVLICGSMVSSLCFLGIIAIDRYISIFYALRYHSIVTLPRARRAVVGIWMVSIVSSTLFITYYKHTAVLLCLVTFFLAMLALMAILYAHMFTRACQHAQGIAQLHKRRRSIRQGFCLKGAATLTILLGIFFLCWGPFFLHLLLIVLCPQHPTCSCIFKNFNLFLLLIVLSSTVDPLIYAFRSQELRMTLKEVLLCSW
smiles,measurement,setting,value
N=C(N)NCCCC(NC(=O)C(Cc1ccc(Cl)cc1)NC(=O)C(COCc1ccccc1)NC(=O)CCCCCCN)C(=O)NC(Cc1c[nH]c2ccccc12)C(N)=O [7′-amino-heptanoyl-Ser(Bzl)-D-Phe(4-Cl)-Arg-Trp-NH2],Ki,MC1-R,795 nM
same,"percent inhibition of 125I-NDP-alpha-MSH binding, MC3-R","hMC3-R; hMC3-R membranes, 0.4 nM 125I-NDP-alpha-MSH, mean of triplicate, peptide concentration not given",94%
same,Ki,"hMC3-R; membranes, read-out: Ki MC-3 Mem",25 nM
same,"percent inhibition of 125I-NDP-alpha-MSH binding, MC5-R","hMC5-R; hMC5-R membranes, 0.4 nM 125I-NDP-alpha-MSH, mean of triplicate, peptide concentration not given",73%
same,Ki,"hMC5-R; membranes, read-out: Ki MC-5 Mem",175 nM
same,penile erection induction,[1],induced erections
same,average daily body weight gain,[2]; ICV 0.1 nmol,3 g
same,average daily body weight lost,[2]; ICV 0.5 nmol,1 g
same,average daily body weight lost,[2]; ICV 1.0 nmol,3 g
same,time by which animals returned to baseline after dosing,"[2]; ICV dosing, FIG. 4",≤ 48 h
same,average daily body weight gain,[2]; IP 750 μg/kg,4 g
same,average daily body weight gain,[2]; IP 1500 μg/kg,2 g
same,average daily body weight lost,[2]; IP 3000 μg/kg,1 g
same,conditioned taste aversion response,[3],no conditioned taste aversion response
same,conditioned taste aversion response,[3]; listed as 7′-amino-heptanoyl-Ser(Bzl)-D-Phe(4′-Cl)-Arg-Trp-NH2,did not induce a conditioned taste aversion response
same,"percent inhibition of 125I-NDP-alpha-MSH binding, MC4-R","MC4-R [4]; hMC4-R membranes, 0.4 nM 125I-NDP-alpha-MSH, mean of triplicate, peptide concentration not given",99%
same,Ki,"MC4-R [4]; membranes, read-out: Ki MC-4 Mem",1 nM
same,HEK-293 (MC4-R) cells Classification,MC4-R [5],Agonist

# — patent US7417027B2, “Linear and cyclic melanocortin receptor-specific peptides” (Palatin Technologies, Inc., priority 2001, dated 2008)
